This passage reports IC50 and Ki results from ChEMBL document CHEMBL1909046, “DrugMatrix in vitro pharmacology data”.

For assay [1], the target named is T1, Cytochrome P450 1A2 (Homo sapiens, UniProt P05177).
T1 sequence (P05177 whole entry): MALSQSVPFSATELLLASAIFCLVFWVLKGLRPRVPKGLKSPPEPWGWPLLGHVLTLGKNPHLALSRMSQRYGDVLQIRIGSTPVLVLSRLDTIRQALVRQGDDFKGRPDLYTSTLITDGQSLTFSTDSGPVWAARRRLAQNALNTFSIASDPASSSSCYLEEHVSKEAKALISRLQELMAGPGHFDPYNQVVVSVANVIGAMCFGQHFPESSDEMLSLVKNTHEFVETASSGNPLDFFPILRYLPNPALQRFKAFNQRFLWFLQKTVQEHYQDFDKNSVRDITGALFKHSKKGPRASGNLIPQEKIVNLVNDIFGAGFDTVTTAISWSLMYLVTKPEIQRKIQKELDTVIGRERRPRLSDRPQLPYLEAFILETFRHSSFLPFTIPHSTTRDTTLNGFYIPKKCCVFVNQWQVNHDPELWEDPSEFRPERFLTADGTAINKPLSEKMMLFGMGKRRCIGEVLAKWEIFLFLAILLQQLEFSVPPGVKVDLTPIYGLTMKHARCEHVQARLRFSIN

Assay [2] has as its target T2, Estrogen receptor (Homo sapiens, UniProt P03372).
T2 sequence (P03372 whole entry): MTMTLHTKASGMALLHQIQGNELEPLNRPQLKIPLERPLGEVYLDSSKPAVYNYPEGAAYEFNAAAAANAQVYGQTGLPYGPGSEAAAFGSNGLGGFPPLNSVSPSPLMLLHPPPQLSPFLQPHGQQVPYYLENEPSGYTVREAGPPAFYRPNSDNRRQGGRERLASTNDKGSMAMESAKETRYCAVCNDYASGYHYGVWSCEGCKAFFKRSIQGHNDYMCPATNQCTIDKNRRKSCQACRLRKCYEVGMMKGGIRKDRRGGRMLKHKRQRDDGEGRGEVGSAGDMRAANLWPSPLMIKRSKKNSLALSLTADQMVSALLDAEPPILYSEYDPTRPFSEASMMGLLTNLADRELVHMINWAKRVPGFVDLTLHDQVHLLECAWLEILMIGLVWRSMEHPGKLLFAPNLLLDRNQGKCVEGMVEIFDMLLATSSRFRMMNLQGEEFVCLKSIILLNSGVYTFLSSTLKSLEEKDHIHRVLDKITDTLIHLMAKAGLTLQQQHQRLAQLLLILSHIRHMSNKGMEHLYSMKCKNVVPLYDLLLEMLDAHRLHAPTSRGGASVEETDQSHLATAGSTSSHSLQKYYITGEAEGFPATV
Kind of assay: biochemical.

The target of assay [3] is Cytochrome P450 2C19 (Homo sapiens, UniProt P33261).
Sequence of Cytochrome P450 2C19 (P33261 whole entry): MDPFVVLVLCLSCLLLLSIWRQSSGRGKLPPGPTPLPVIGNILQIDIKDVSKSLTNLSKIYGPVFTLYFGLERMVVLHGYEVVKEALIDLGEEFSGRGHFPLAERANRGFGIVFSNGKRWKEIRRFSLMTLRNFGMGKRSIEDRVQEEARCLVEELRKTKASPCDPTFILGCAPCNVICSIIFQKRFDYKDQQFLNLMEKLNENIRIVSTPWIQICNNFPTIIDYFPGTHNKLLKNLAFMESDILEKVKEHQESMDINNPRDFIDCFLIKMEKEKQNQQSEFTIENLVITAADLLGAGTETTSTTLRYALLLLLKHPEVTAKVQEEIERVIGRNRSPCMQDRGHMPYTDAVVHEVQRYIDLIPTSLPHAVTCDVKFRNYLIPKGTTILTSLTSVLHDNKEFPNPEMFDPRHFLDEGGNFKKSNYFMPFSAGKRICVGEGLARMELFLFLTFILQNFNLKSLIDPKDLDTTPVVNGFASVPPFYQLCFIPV
Assay [4] has as its target Cytochrome P450 2C9 (Homo sapiens, UniProt P11712).
The target in assay [5] is T3, Glucocorticoid receptor (Homo sapiens, UniProt P04150).
T3 sequence (P04150 whole entry): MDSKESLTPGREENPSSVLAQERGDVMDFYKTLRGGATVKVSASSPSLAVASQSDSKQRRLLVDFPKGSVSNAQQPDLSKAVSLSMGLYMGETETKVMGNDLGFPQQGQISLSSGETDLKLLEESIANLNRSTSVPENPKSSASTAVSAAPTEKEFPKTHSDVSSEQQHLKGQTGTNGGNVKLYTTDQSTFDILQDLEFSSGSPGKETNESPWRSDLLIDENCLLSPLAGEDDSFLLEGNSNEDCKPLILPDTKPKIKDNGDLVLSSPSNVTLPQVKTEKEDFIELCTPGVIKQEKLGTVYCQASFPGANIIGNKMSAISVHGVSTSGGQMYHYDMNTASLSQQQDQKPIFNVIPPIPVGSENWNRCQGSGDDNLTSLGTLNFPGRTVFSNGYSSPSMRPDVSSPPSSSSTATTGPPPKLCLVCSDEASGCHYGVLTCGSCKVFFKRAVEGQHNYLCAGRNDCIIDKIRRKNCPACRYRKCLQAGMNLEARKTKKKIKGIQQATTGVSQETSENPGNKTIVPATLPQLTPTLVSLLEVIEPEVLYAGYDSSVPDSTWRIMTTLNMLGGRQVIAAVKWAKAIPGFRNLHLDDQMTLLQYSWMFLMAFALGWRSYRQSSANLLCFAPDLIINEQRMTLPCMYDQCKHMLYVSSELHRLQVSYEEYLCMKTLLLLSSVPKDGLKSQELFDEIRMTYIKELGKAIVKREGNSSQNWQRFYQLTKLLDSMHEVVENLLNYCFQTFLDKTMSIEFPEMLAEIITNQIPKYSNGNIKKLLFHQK
Kind of assay: biochemical.

In assay [6] the target is Cytochrome P450 2D6 (Homo sapiens, UniProt P10635).
Sequence of Cytochrome P450 2D6 (P10635 whole entry): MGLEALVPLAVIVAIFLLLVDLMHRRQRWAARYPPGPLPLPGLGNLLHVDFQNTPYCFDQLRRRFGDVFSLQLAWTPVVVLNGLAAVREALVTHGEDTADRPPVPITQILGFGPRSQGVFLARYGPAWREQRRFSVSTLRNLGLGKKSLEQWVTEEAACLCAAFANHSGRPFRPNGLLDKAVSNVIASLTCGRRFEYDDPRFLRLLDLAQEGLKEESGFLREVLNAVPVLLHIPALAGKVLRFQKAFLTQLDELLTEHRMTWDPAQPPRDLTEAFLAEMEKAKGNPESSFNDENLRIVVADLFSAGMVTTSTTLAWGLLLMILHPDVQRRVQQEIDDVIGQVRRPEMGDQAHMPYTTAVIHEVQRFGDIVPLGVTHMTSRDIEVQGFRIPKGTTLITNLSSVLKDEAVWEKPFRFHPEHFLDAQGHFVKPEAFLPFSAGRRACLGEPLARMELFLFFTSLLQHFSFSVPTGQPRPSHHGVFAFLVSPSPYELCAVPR
For assay [7], the target named is Voltage-gated inwardly rectifying potassium channel KCNH2 (Homo sapiens, UniProt Q12809).
Sequence of Voltage-gated inwardly rectifying potassium channel KCNH2 (Q12809 whole entry): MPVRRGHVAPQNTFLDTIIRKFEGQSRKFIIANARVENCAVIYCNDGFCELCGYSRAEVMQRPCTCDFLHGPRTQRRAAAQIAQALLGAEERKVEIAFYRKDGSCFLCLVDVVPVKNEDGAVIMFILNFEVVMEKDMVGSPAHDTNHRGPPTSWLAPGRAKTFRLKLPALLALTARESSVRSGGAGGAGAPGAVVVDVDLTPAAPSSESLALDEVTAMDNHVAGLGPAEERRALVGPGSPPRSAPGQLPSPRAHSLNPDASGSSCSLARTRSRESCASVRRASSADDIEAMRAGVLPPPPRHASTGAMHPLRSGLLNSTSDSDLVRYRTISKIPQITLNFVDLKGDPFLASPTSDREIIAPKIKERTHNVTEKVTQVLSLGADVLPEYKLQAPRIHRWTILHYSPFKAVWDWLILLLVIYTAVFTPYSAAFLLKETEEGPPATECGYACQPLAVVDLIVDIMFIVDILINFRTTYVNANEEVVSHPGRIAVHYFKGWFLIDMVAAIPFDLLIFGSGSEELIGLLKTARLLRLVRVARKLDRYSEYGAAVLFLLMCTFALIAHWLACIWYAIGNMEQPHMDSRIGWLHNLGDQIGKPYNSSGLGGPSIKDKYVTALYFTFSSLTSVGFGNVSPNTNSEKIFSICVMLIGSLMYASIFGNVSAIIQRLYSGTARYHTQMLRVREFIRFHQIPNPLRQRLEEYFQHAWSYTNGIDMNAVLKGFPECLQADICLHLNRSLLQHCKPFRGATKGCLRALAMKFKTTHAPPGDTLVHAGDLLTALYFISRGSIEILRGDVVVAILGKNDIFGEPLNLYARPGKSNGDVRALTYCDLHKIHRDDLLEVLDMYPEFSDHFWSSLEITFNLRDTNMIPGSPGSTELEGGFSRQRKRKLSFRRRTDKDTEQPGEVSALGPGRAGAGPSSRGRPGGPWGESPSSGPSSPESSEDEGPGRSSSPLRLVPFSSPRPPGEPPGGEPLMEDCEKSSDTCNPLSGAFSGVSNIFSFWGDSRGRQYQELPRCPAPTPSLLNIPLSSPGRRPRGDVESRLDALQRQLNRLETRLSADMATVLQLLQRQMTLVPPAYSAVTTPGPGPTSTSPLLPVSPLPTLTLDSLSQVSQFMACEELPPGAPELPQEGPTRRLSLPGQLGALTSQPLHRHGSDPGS

Molecules are shown by their SMILES. pIC50, pKi: −log10 of the molar value.

Sequence of Cytochrome P450 2C9 (P11712 whole entry): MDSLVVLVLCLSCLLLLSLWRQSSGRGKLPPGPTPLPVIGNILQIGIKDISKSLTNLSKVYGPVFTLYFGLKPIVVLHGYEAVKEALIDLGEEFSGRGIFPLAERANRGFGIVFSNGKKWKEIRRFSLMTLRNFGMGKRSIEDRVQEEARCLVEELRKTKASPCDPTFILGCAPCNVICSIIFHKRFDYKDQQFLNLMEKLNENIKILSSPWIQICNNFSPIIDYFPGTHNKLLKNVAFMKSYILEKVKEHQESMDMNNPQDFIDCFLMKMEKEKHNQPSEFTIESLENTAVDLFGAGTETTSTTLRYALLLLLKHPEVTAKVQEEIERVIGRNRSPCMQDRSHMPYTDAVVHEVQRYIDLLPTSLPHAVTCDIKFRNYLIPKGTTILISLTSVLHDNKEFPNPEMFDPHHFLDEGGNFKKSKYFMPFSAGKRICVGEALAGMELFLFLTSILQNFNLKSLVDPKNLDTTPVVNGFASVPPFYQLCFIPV

The compound `c1ccc2c(c1)cc1ccc3cccc4ccc2c1c34` had a pIC50 in assay [1] of 7.40.

In assay [2], `CCCCCCCCCc1ccc(O)cc1` [4-NONYLPHENOL] showed a pIC50 of 6.42 and a pKi of 6.97. In the case of `Cc1[nH]cnc1CN1CCc2c(c3ccccc3n2C)C1=O` [ALOSETRON], in assay [1], the pIC50 is 6.22. In assay [3], `CC(=O)O[C@]1(C(C)=O)CC[C@H]2[C@@H]3C=C(Cl)C4=CC(=O)CC[C@]4(C)[C@H]3CC[C@@]21C` [CHLORMADINONE ACETATE] showed a pIC50 of 5.52. In assay [4], `O=C1CCc2cc(OCCCCc3nnnn3C3CCCCC3)ccc2N1` [CILOSTAZOL] had a negative logarithm of the IC50 (pIC50) of 5.00. For `CC(=O)OCC(=O)[C@@]1(OC(C)=O)[C@@H](C)C[C@H]2[C@@H]3C[C@H](F)C4=CC(=O)C=C[C@]4(C)[C@@]3(F)[C@@H](O)C[C@@]21C` [DIFLORASONE DIACETATE], in assay [5], the negative logarithm of the IC50 (pIC50) is 8.19 and the negative logarithm of the Ki (pKi) was 8.54.

Compound `CCc1ccc(C(=O)C(C)CN2CCCCC2)cc1` (stereo not given) [EPERISONE] showed a pIC50 in assay [6] of 5.31. In assay [7], `Cc1c(-c2ccccc2)oc2c(C(=O)OCCN3CCCCC3)cccc2c1=O` [FLAVOXATE] showed a negative logarithm of the IC50 (pIC50) of 4.62 and a negative logarithm of the Ki (pKi) of 4.70. `O=C1OC2(c3ccc(O)cc3Oc3cc(O)ccc32)c2ccccc21` [FLUORESCEIN]: in assay [3], the negative-log IC50 (pIC50) is 6.04. Turning to `CC(=O)[C@@]1(O)CC[C@H]2[C@@H]3C[C@H](C)C4=CC(=O)C=C[C@]4(C)[C@@]3(F)[C@@H](O)C[C@@]21C` [FLUOROMETHOLONE], in assay [5], the negative-log IC50 (pIC50) is 8.46 and the pKi is 8.80. `CNCCC=C1c2ccccc2CCc2ccccc21` [NORTRIPTYLINE]: the results for the pIC50 in assay [3] and in assay [6] were 5.52 and 6.00, respectively.

With `CNC(=O)Oc1ccc2c(c1)[C@]1(C)CCN(C)[C@@H]1N2C` [PHYSOSTIGMINE], the negative-log IC50 (pIC50) in assay [6] was 6.70. Consider `COc1ccc(CN(CCN(C)C)c2ccccn2)cc1` [PYRILAMINE], for which the figures for the negative-log IC50 (pIC50) in assay [6] and in assay [7] were 6.52 and 4.90, respectively. The compound also gave a negative-log Ki (pKi) in assay [7] of 4.99.

For orientation: pIC50 means the negative decadic logarithm of the IC50, by convention in mol/L. Read a low pIC50 as a high IC50. One may read the pKi as the negative decadic logarithm of the Ki, by convention in mol/L. Read a low pKi as a high Ki.
